The test system of one data set is Escherichia coli. The data set can be described thus: Antibacterial activity against Escherichia coli MG1655 assessed as inhibition of bacterial growth incubated for 20 hrs by CLSI broth microdilution method. It counts as functional.
In data set [1] the test system is Staphylococcus aureus. The data set is described as follows: Antibacterial activity against Staphylococcus aureus ATCC 25923 assessed as inhibition of bacterial growth incubated for 20 hrs by CLSI broth microdilution method. It counts as functional.
Data set [2] deals with 3T3-L1. The data set can be described thus: Cytotoxicity against mouse 3T3-L1 cells assessed as reduction in cell viability at 12.5 ug/ml measured after 24 hrs by MTT assay. Conditions: 3t3-l1, 24 h, dose 12.5 µg/ml. It counts as toxicity, cell-based.
In data set [3] the test system is Bacillus subtilis. The data set can be described thus: Antibacterial activity against Bacillus subtilis 168 assessed as inhibition of bacterial growth incubated for 20 hrs by CLSI broth microdilution method. It counts as functional.
For data set [4], the system named is Bacillus subtilis. The data set is described as follows: Bactericidal activity against Bacillus subtilis 168 at 4 ug/ml incubated for 20 hrs in CAMHB followed by culturing onto CAMHA for 48 hrs by colony counting analysis. In kind it is functional, organism-based. Conditions: dose 4.0 µg/ml, time 68.0 hrs.
The subject of data set [5] is Staphylococcus aureus. The data set is described as follows: Bactericidal activity against Staphylococcus aureus ATCC 25923 at 4 ug/ml incubated for 20 hrs in CAMHB followed by culturing onto CAMHA for 48 hrs by colony counting analysis. Conditions: dose 4.0 µg/ml, time 68.0 hrs. In kind it is functional, organism-based.
The nature of data set [6]: Cytotoxicity against mouse 3T3-L1 cells assessed as cell viability at 25 ug/ml measured after 24 to 72 hrs by MTT assay relative to control. In kind it is toxicity, cell-based. The conditions noted are these: at 25 µg/mL, time 24-72 hrs, read-out: Activity.
A further data set has as its system Vero. The data set is described as follows: (§1) Cytotoxicity against African green monkey Vero cells assessed as inhibition of cell growth at 50 ug/ml. It counts as toxicity, cell-based. The conditions noted are these: chlorocebus sabaeus, vero; dose 50 µg/ml.
Data set [7] relates to 3T3-L1. The data set can be described thus: Cytotoxicity against mouse 3T3-L1 cells assessed as reduction in cell viability at 25 ug/ml measured after 24 to 72 hrs by MTT assay. Conditions: time 24-72 hrs, dose 25 µg/ml. It counts as toxicity, cell-based.
For another data set, the system named is Acinetobacter baylyi. The data set is described as follows: Antibacterial activity against Acinetobacter baylyi assessed as inhibition of bacterial growth incubated for 20 hrs by CLSI broth microdilution method. In kind it is functional.
A further data set has as its system Acinetobacter baumannii. The data set can be described thus: Antibacterial activity against Acinetobacter baumannii assessed as inhibition of bacterial growth incubated for 20 hrs by CLSI broth microdilution method. It counts as functional.
Data set [8] can be described thus: Induction of phenotypic changes in Bacillus subtilis 168 assessed as abundance of ghost cells at 4XMIC measured after 1 hr by phase contrast microscopic analysis. In kind it is functional.
A further data set has as its system Streptococcus pneumoniae. The data set is described as follows: Antibacterial activity against Streptococcus pneumoniae assessed as inhibition of bacterial growth incubated for 20 hrs by CLSI broth microdilution method. In kind it is functional.
For data set [9], the system named is Mycobacterium tuberculosis. The data set is described as follows: Antibacterial activity against Mycobacterium tuberculosis H37Rv assessed as inhibition of bacterial growth at 20 uM. In kind it is functional.
Data set [10] has as its system Bacillus subtilis. The data set is described as follows: Induction of phenotypic changes in Bacillus subtilis 168 assessed as bacterial population with bulging phenotype at 4XMIC measured after 1 hr by phase contrast microscopic analysis. It counts as functional.
For data set [11], the system named is Bacillus subtilis. The data set can be described thus: Induction of phenotypic changes in Bacillus subtilis 168 assessed as disruption of peptidoglycan synthesis by measuring inconsistency in NADA stain distribution throughout the cell at 4XMIC measured after 60 mins by NADA staining based fluorescent microscopy. It counts as functional.
The next data set concerns Enterococcus faecium. The data set can be described thus: Antibacterial activity against Enterococcus faecium assessed as inhibition of bacterial growth incubated for 20 hrs by CLSI broth microdilution method. In kind it is functional.
Data set [12] concerns Bacillus subtilis. The data set can be described thus: Induction of phenotypic changes in Bacillus subtilis 168 assessed as bacterial population with localized swelling at 4XMIC measured after 1 hr by phase contrast microscopic analysis. In kind it is functional.
Data set [13] relates to Mycobacterium tuberculosis. The data set is described as follows: Antibacterial activity against Mycobacterium tuberculosis H37Rv assessed as inhibition of bacterial growth. In kind it is functional.
For data set [14], the system named is Staphylococcus aureus. The data set is described as follows: Antibacterial activity against Staphylococcus aureus ATCC 25923 assessed as inhibition of bacterial growth measured after repeated 30 day serial passage treatment by broth microdilution method. In kind it is functional, organism-based.
The nature of data set [15]: as §1. It counts as toxicity, cell-based. Conditions: chlorocebus sabaeus, Vero cells, at 50 µg/mL.

Each structure is given as a SMILES string. Active and inactive are the calls of the source. No cut-off for these calls is given here.

Turning to `COc1cc2c(cc1OC)C(Cc1ccccc1)[N+](Cc1cn(-c3ccc(C(C)(C)C)cc3)nn1)(Cc1cn(-c3ccc(C(C)(C)C)cc3)nn1)CC2` (centres undefined), the MIC95 in the data set on Escherichia coli is greater than 128 µg/mL; with Staphylococcus aureus [1], 2 µg/mL. Moreover, the Activity entry in the data set on 3T3-L1 [2] is on record as “Toxic”.
For the molecule `COc1cc2c(cc1OC)C[N+](Cc1cn(-c3ccc(COc4ccccc4)cc3)nn1)(Cc1cn(-c3ccc(COc4ccccc4)cc3)nn1)CC2`, the MIC95 was greater than 128 µg/mL with Escherichia coli, 32 µg/mL in the data set with Staphylococcus aureus [1] and 32 µg/mL with Bacillus subtilis [3].
Regarding `COc1cc2c(cc1OC)C[N+](Cc1cn(-c3ccc(Cl)cc3)nn1)(Cc1cn(-c3ccc(Cl)cc3)nn1)CC2`, the MIC95 was greater than 128 µg/mL in the data set on Escherichia coli, 32 µg/mL in the data set on Staphylococcus aureus [1] and 32 µg/mL with Bacillus subtilis [3].
`COc1cc2c(cc1OC)C[N+](Cc1cn(-c3ccc(OCc4ccccc4)c(F)c3)nn1)(Cc1cn(-c3ccc(OCc4ccccc4)c(F)c3)nn1)CC2`: the MIC95 is greater than 128 µg/mL in the data set on Escherichia coli, 4 µg/mL with Staphylococcus aureus [1] and 4 µg/mL in the data set with Bacillus subtilis [3]. The outcome with Bacillus subtilis [4] and in the data set on Staphylococcus aureus [5] was Active. In addition, in [6], the viability at 25 ug/ml is greater than 85%. Besides, the Activity result in the data set on Vero is “Non-Toxic”.
Take `COc1cc2c(cc1OC)C[N+](Cc1cn(-c3ccccc3)nn1)(Cc1cn(-c3ccccc3)nn1)CC2`: the MIC95 in the data set with Escherichia coli and with Staphylococcus aureus [1] was greater than 128 µg/mL throughout.
As for `COc1cc2c(cc1OC)C[N+](Cc1cn(-c3ccoc3)nn1)(Cc1cn(-c3ccoc3)nn1)CC2`, the MIC95 with Escherichia coli, in the data set on Staphylococcus aureus [1] and with Bacillus subtilis [3] was greater than 128 µg/mL throughout.
`COc1cc2c(cc1OC)C[N+](Cc1cn(-c3ccc4ccccc4c3)nn1)(Cc1cn(-c3ccc4ccccc4c3)nn1)CC2`: the MIC95 was greater than 128 µg/mL in the data set with Escherichia coli, 32 µg/mL in the data set with Staphylococcus aureus [1] and 32 µg/mL in the data set with Bacillus subtilis [3].
Take `COc1cc2c(cc1OC)C[N+](Cc1cn(-c3ccc(C(=O)N(C)C)cc3)nn1)(Cc1cn(-c3ccc(C(=O)N(C)C)cc3)nn1)CC2`: the MIC95 in the data set with Escherichia coli, with Staphylococcus aureus [1] and in the data set with Bacillus subtilis [3] was greater than 128 µg/mL in each case.
On to `COc1cc2c(cc1OC)C[N+](Cc1cn(-c3ccc(C#N)cc3)nn1)(Cc1cn(-c3ccc(C#N)cc3)nn1)CC2`, for which the MIC95 in the data set on Escherichia coli, in the data set on Staphylococcus aureus [1] and in the data set with Bacillus subtilis [3] was greater than 128 µg/mL throughout.
Regarding `COc1cc2c(cc1OC)C[N+](Cc1cn(-c3ccc(Cl)nc3Cl)nn1)(Cc1cn(-c3ccc(Cl)nc3Cl)nn1)CC2`, the MIC95 in the data set on Escherichia coli, in the data set on Staphylococcus aureus [1] and in the data set on Bacillus subtilis [3] was greater than 128 µg/mL each time.
As to `COc1cc2c(cc1OC)C[N+](Cc1cn(-c3ccc(-c4ccccc4)cc3)nn1)(Cc1cn(-c3ccc(-c4ccccc4)cc3)nn1)CC2`, the MIC95 with Escherichia coli is greater than 128 µg/mL; with Staphylococcus aureus [1], 32 µg/mL.
For the molecule `COc1cc2c(cc1OC)C[N+](Cc1cn(-c3ccc(OCc4ccccc4)cc3F)nn1)(Cc1cn(-c3ccc(OCc4ccccc4)cc3F)nn1)CC2`, the Activity entry in the data set with 3T3-L1 [7] is “Toxic”. Also, the MIC95 with Escherichia coli is greater than 128 µg/mL; with Staphylococcus aureus [1], 4 µg/mL; in the data set with Bacillus subtilis [3], 4 µg/mL. Besides, the result in the data set with Bacillus subtilis [4] and with Staphylococcus aureus [5] was Active.
On to `COc1cc2c(cc1OC)C[N+](Cc1cn(-c3ccc(C(F)(F)F)cc3C(F)(F)F)nn1)(Cc1cn(-c3ccc(C(F)(F)F)cc3C(F)(F)F)nn1)CC2`, for which the figures for the MIC95 in the data set on Escherichia coli, with Staphylococcus aureus [1] and with Bacillus subtilis [3] were greater than 128 µg/mL, 32 µg/mL and 32 µg/mL, respectively.
Turning to `COc1cc2c(cc1OC)C[N+](Cc1cn(-c3ccc(C(C)(C)C)cc3)nn1)(Cc1cn(-c3ccc(C(C)(C)C)cc3)nn1)CC2`, the MIC95 was 128 µg/mL in the data set on Acinetobacter baylyi; 128 µg/mL with Acinetobacter baumannii; 8 µg/mL in the data set with Streptococcus pneumoniae; greater than 128 µg/mL in the data set with Escherichia coli; 4 µg/mL with Staphylococcus aureus [1]; 8 µg/mL in the data set with Enterococcus faecium. In the data set on Bacillus subtilis [3], the MIC95 was 4 µg/mL. For the same molecule, the Activity is greater than 50% in [8], “Toxic” with 3T3-L1 [7], 10% in the data set with Bacillus subtilis [10] and 20% in the data set on Bacillus subtilis [12]. The inhibition at 20 µM in [9] is greater than 90%. Also, the result in the data set with Bacillus subtilis [11], with Bacillus subtilis [4], with Staphylococcus aureus [5] and in the data set on Staphylococcus aureus [14] was Active. The MIC in data set [13] turned out to be 6 µg/mL. In [15], the inhibition at 50 ug/ml was found to be 89%.
For `COc1ccc(-n2cc(C[N+]3(Cc4cn(-c5ccc(OC)cc5)nn4)CCc4cc(OC)c(OC)cc4C3)nn2)cc1`, the MIC95 in the data set with Escherichia coli, in the data set with Staphylococcus aureus [1] and in the data set with Bacillus subtilis [3] was greater than 128 µg/mL each time.
Consider `COc1cc2c(cc1OC)C[N+](Cc1cn(-c3ccc([N+](=O)[O-])cc3)nn1)(Cc1cn(-c3ccc([N+](=O)[O-])cc3)nn1)CC2`, for which the MIC95 in the data set with Escherichia coli, in the data set on Staphylococcus aureus [1] and in the data set on Bacillus subtilis [3] was greater than 128 µg/mL each time.
With `COc1cc2c(cc1OC)C[N+](Cc1cn(-c3cc(C(F)(F)F)cc(C(F)(F)F)c3)nn1)(Cc1cn(-c3cc(C(F)(F)F)cc(C(F)(F)F)c3)nn1)CC2`, the MIC95 with Escherichia coli is greater than 128 µg/mL; in the data set on Staphylococcus aureus [1] it was 8 µg/mL; in the data set on Bacillus subtilis [3], greater than 128 µg/mL.
Consider `COc1cccc(CC2c3cc(OC)c(OC)cc3CC[N+]2(Cc2cn(-c3ccc(C(C)(C)C)cc3)nn2)Cc2cn(-c3ccc(C(C)(C)C)cc3)nn2)c1` (centres undefined), for which the MIC95 in the data set on Escherichia coli is greater than 128 µg/mL; in the data set on Staphylococcus aureus [1], 4 µg/mL. Besides, the Activity entry with 3T3-L1 [2] is “Toxic”.

The values are drawn from ChEMBL document CHEMBL5131487, “Synthesis and biological evaluation of tetrahydroisoquinoline-derived antibacterial compounds” (Bioorg Med Chem, 2022).
